Measured values taken from PMC10048095, “Sol-Gel Films Doped with Enzymes and Banana Crude Extract as Sensing Materials for Spectrophotometric Determination” (Gels, 2023).

What was measured:
[1] = test system: T1, Mushroom tyrosinase (MT); details: read-out: KM, mM / Solution; free enzyme in solution; pH 6.0 buffer; air oxygen
T1 construct: gene PPO3

[2] = target: T2, Horseradish peroxidase (HRP) (Armoracia rusticana, UniProt P00433); assay: absorbance at […] nm, initial rates; assay type: biochemical; details: H2O2 as co-substrate; enzyme in solution and in sol-gel films; pH 6.0
T2 construct: gene PRXC1A
T2 sequence (P00433 31-338): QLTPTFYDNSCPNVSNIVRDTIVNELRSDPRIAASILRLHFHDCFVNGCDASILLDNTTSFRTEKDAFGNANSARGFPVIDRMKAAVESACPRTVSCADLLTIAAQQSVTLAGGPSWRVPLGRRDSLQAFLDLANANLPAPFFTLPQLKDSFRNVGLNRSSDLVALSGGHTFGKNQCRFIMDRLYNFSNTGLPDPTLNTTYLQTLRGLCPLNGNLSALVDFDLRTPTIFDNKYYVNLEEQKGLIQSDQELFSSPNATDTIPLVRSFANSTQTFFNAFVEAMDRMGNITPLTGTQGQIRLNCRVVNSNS

SMILES	Km [1] [mM]	absorbance at 650 nm, initial rates [2]
O=C(O)/C=C/c1ccc(O)c(O)c1 [Caffeic acid]	1.1	
Cc1cc(-c2cc(C)c(N)c(C)c2)cc(C)c1N [3,3′,5,5′-tetramethylbenzidine]		hydrogen peroxide reduction with TMB oxidation
